According to US20240174671A1, “New 2,3-Dihydro-1H-pyrrolo[3,2-b]pyridine Derivatives as Sigma Ligands” (ACONDICIONAMIENTO TARRASENSE, priority 2021, published 2024):
pKi: −log10 of the molar value. Like-named read-outs stand apart in the source and are kept apart here.

Experiments:
human σ1 receptor = target: T1, human σ1 receptor (Homo sapiens, UniProt Q99720); assay: Human σ1 receptor radioligand assay ([3H](+)-pentazocine); type: binding
T1 construct: expressed in transfected cells; host or cells: HEK-293
T1 sequence (Q99720 whole entry): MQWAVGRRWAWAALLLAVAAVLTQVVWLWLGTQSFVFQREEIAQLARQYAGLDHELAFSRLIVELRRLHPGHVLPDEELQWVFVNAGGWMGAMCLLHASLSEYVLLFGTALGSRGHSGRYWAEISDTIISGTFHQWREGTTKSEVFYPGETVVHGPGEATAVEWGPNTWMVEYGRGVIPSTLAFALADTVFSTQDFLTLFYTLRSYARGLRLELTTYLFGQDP
In short: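 Binding used [3H](+)-pentazocine, 120 min at 37° C, with non-specific binding defined by 10 μM haloperidol. Bound radioligand was collected by filtration, washed with ice-cold 10 mM Tris-HCl pH 7.4 and counted by scintillation.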

human σ2/TMEM97 receptor = target: T2, human σ2/TMEM97 receptor (Homo sapiens, UniProt Q5BJF2); assay: Binding assay to human σ2/TMEM97 receptor ([3H]-DTG); details: transfected HEK-293 membranes, 10 nM [3H]-DTG, 25° C., 120 minutes; read-out: Binding σ-[…] (binding to σ2-receptor expressed as Ki)
T2 construct: expressed in transfected cells; host or cells: HEK-293
T2 sequence (Q5BJF2 whole entry): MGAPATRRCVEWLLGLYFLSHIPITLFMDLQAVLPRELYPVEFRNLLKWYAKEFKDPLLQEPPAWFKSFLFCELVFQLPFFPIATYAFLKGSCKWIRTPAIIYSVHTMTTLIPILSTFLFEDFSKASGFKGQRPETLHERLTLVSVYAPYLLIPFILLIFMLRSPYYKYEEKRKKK
In short: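 Membranes from transfected HEK-293 cells incubated with 10 nM [3H]-DTG in 50 mM Tris-HCl pH 8.0, 120 min at 25 °C; non-specific binding defined with 10 μM haloperidol. Bound radioactivity counted after filtration; compounds tested as % inhibition at 1 or 10 μM or at five concentrations for Ki.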

[1] = transfected HEK-293 membranes, 5 nM [3H](+)-pentazocine, 37° C., 120 minutes, read-out: Binding σ-[…] (binding to σ1-receptor expressed as Ki)

Compound | pKi (human σ1 receptor; [1]) | pKi (human σ2/TMEM97 receptor) | pKi (human σ1 receptor)
O=C(N1CCC[C@H](NCCc2ccccc2)C1)N1CCc2ncccc21 [Example 101, (S)-(2,3-dihydro-1H-pyrrolo[3,2-b]pyridin-1-yl)(3-(phenethylamino)piperidin-1-yl)methanone] | < 6.00 | 6.30 to 7.00 | 
CC1(C)CN(C(=O)N2CCC3(CCN(Cc4ccc(C#N)c(F)c4)CC3)CC2)c2cccnc21 [Example 146, 4-((9-(3,3-dimethyl-2,3-dihydro-1H-pyrrolo[3,2-b]pyridine-1-carbonyl)-3,9-diazaspiro[5.5]undecan-3-yl)methyl)-2-fluorobenzonitrile] | > 7.00 | 6.30 to 7.00 | 
CN[C@@H](CNC(=O)N1CC(C)(C)c2nc(C)ccc21)c1ccccc1 [Example 112, (R)-3,3,5-trimethyl-N-(2-(methylamino)-2-phenylethyl)-2,3-dihydro-1H-pyrrolo[3,2-b]pyridine-1-carboxamide] | 6.30 to 7.00 | < 6.00 | 
CC1(C)CN(C(=O)N2CCC3(CCN(Cc4ccc(F)cn4)CC3)C2)c2cccnc21 [Example 154, (3,3-dimethyl-2,3-dihydro-1H-pyrrolo[3,2-b]pyridin-1-yl)(8-((5-fluoropyridin-2-yl)methyl)-2,8-diazaspiro[4.5]decan-2-yl)methanone] | 6.30 to 7.00 | > 7.00 | 
CC1(C)CN(C(=O)NCC2CCN(Cc3ccccc3)CC2)c2cccnc21 [Example 69, N-((1-benzylpiperidin-4-yl)methyl)-3,3-dimethyl-2,3-dihydro-1H-pyrrolo[3,2-b]pyridine-1-carboxamide] | 6.30 to 7.00 | 6.30 to 7.00 | 
CC1(C)CN(C(=O)NC2CCN(Cc3ccccc3)CC2)c2cc(F)cnc21 [Example 31, N-(1-benzylpiperidin-4-yl)-6-fluoro-3,3-dimethyl-2,3-dihydro-1H-pyrrolo[3,2-b]pyridine-1-carboxamide] | > 7.00 | 6.00 to 6.30 | 
CC1(C)CN(C(=O)N2CCC3(CCN(Cc4cccc(C#N)c4)CC3)C2)c2cccnc21 [Example 90, 3-((2-(3,3-dimethyl-2,3-dihydro-1H-pyrrolo[3,2-b]pyridine-1-carbonyl)-2,8-diazaspiro[4.5]decan-8-yl)methyl)benzonitrile] | 6.30 to 7.00 | > 7.00 | 
CC1(C)CN(C(=O)NC2CN(Cc3ccccc3)C2)c2cccnc21 [Example 88, N-(1-benzylazetidin-3-yl)-3,3-dimethyl-2,3-dihydro-1H-pyrrolo[3,2-b]pyridine-1-carboxamide] | 6.30 to 7.00 | < 6.00 | 
CN(C)[C@@H](CNC(=O)N1CC(C)(C)c2nc(C#N)ccc21)c1ccccc1 [Example 15, (R)-5-cyano-N-(2-(dimethylamino)-2-phenylethyl)-3,3-dimethyl-2,3-dihydro-1H-pyrrolo[3,2-b]pyridine-1-carboxamide] |  | < 6.00 | > 7.00
CC1(C)CN(C(=O)N2CC3(CCN(Cc4ccccc4)CC3)C2)c2cccnc21 [Example 159, (7-benzyl-2,7-diazaspiro[3.5]nonan-2-yl)(3,3-dimethyl-2,3-dihydro-1H-pyrrolo[3,2-b]pyridin-1-yl)methanone] | > 7.00 | 6.30 to 7.00 | 
CC1(C)CN(C(=O)N2CCC3(CCN(Cc4ccccc4)CC3)C2)c2cccnc21 [Example 89, (8-benzyl-2,8-diazaspiro[4.5]decan-2-yl)(3,3-dimethyl-2,3-dihydro-1H-pyrrolo[3,2-b]pyridin-1-yl)methanone] | > 7.00 | > 7.00 | 
CC(C)(C)CCN1CCC(CNC(=O)N2CC(C)(C)c3ncccc32)CC1 [Example 109, N-((1-(3,3-dimethylbutyl)piperidin-4-yl)methyl)-3,3-dimethyl-2,3-dihydro-1H-pyrrolo[3,2-b]pyridine-1-carboxamide] | 6.30 to 7.00 | > 7.00 | 
CC1(C)CN(C(=O)N2CCC3(CCN(Cc4ccc(C#N)cc4F)CC3)C2)c2cccnc21 [Example 157, 4-((2-(3,3-dimethyl-2,3-dihydro-1H-pyrrolo[3,2-b]pyridine-1-carbonyl)-2,8-diazaspiro[4.5]decan-8-yl)methyl)-3-fluorobenzonitrile] | 6.30 to 7.00 | > 7.00 | 

More lines, main results first:

pKi (human σ1 receptor; [1]) | pKi (human σ2/TMEM97 receptor) | Compound | pKi (human σ1 receptor)
< 6.00 | > 7.00 | Cc1ccc2c(n1)C(C)(C)CN2C(=O)N1CCC2(CCN(Cc3cccc(S(C)(=O)=O)c3)CC2)C1 [Example 102, (8-(3-(methylsulfonyl)benzyl)-2,8-diazaspiro[4.5]decan-2-yl)(3,3,5-trimethyl-2,3-dihydro-1H-pyrrolo[3,2-b]pyridin-1-yl)methanone] | 
6.30 to 7.00 | 6.30 to 7.00 | Cc1ccc2c(n1)C(C)(C)CN2C(=O)N1CCC2(CCN(Cc3ccc(C#N)c(F)c3)CC2)CC1 [Example 163, 2-fluoro-4-((9-(3,3,5-trimethyl-2,3-dihydro-1H-pyrrolo[3,2-b]pyridine-1-carbonyl)-3,9-diazaspiro[5.5]undecan-3-yl)methyl)benzonitrile] | 
6.00 to 6.30 | > 7.00 | COc1cccc(CN(C)C2CCN(C(=O)N3CC(C)(C)c4nc(C)ccc43)CC2)c1 [Example 59] | 
6.00 to 6.30 | < 6.00 | Cc1ccc2c(n1)C(C)(C)CN2C(=O)N1CC[C@@H](N(C)Cc2ccccc2)C1 [Example 43, (R)-(3-(benzyl(methyl)amino)pyrrolidin-1-yl)(3,3,5-trimethyl-2,3-dihydro-1H-pyrrolo[3,2-b]pyridin-1-yl)methanone] | 
6.30 to 7.00 | 6.30 to 7.00 | Cc1ccc2c(n1)C(C)(C)CN2C(=O)N1CCC2(CCN(C(C)c3ccccc3)CC2)C1 (stereo not drawn) [Example 96, (8-(1-phenylethyl)-2,8-diazaspiro[4.5]decan-2-yl)(3,3,5-trimethyl-2,3-dihydro-1H-pyrrolo[3,2-b]pyridin-1-yl)methanone] | 
< 6.00 | > 7.00 | Cc1ccc2c(n1)C(C)(C)CN2C(=O)N1CCC(N(C)Cc2cccc(C#N)c2)CC1 [Example 118, 3-((methyl(1-(3,3,5-trimethyl-2,3-dihydro-1H-pyrrolo[3,2-t]pyridine-1-carbonyl)piperidin-4-yl)amino)methyl)benzonitrile] | 
> 7.00 | < 6.00 | CC1(C)CN(C(=O)NC2CCN(Cc3ccc(F)cc3)CC2)c2cccnc21 [Example 48, N-(1-(4-fluorobenzyl)piperidin-4-yl)-3,3-dimethyl-2,3-dihydro-1H-pyrrolo[3,2-b]pyridine-1-carboxamide] | 
> 7.00 | > 7.00 | Cc1ccc2c(n1)C(C)(C)CN2C(=O)[C@H]1CC[C@@H](N(C)Cc2ccccc2)CC1 [Example 126, ((1s,4s)-4-(benzyl(methyl)amino)cyclohexyl)(3,3,5-trimethyl-2,3-dihydro-1H-pyrrolo[3,2-b]pyridin-1-yl)methanone] | 
< 6.00 | 6.30 to 7.00 | Cc1ccc2c(n1)C(C)(C)CN2C(=O)N1CCC2(CCN(Cc3ccccn3)CC2)C1 [Example 94, (8-(pyridin-2-ylmethyl)-2,8-diazaspiro[4.5]decan-2-yl)(3,3,5-trimethyl-2,3-dihydro-1H-pyrrolo[3,2-b]pyridin-1-yl)methanone] | 
> 7.00 | > 7.00 | CN(Cc1ccccc1)[C@H]1CC[C@H](C(=O)N2CC(C)(C)c3ncccc32)CC1 [Example 138, ((1r,4r)-4-(benzyl(methyl)amino)cyclohexyl)(3,3-dimethyl-2,3-dihydro-1H-pyrrolo[3,2-b]pyridin-1-yl)methanone] | 
6.30 to 7.00 | 6.30 to 7.00 | Cc1ccc2c(n1)C(C)(C)CN2C(=O)N1CCC(N(C)CC(C)C)CC1 [Example 119, (4-(isobutyl(methyl)amino)piperidin-1-yl)(3,3,5-trimethyl-2,3-dihydro-1H-pyrrolo[3,2-b]pyridin-1-yl)methanone] | 
> 7.00 | > 7.00 | CN(Cc1ccccc1)[C@H]1CC[C@H](C(=O)N2CC(C)(C)c3ncc(F)cc32)CC1 [Example 187, ((1r,4r)-4-(benzyl(methyl)amino)cyclohexyl)(6-fluoro-3,3-dimethyl-2,3-dihydro-1H-pyrrolo[3,2-b]pyridin-1-yl)methanone] | 
6.30 to 7.00 | > 7.00 | Cc1ccc2c(n1)C(C)(C)CN2C(=O)N1CCC2(CCN(Cc3ccccc3)C2)CC1 [Example 38, (2-benzyl-2,8-diazaspiro[4.5]decan-8-yl)(3,3,5-trimethyl-2,3-dihydro-1H-pyrrolo[3,2-b]pyridin-1-yl)methanone] | 
6.30 to 7.00 | < 6.00 | Cc1ccc2c(n1)C(C)(C)CN2C(=O)N1CC[C@H](N(C)Cc2ccccc2)C1 [Example 39, (S)-(3-(benzyl(methyl)amino)pyrrolidin-1-yl)(3,3,5-trimethyl-2,3-dihydro-1H-pyrrolo[3,2-b]pyridin-1-yl)methanone] | 
6.30 to 7.00 | 6.30 to 7.00 | COc1ccc(CN(C)C2CCN(C(=O)N3CC(C)(C)c4nc(C)ccc43)CC2)cc1 [Example 58, (4-((4-methoxybenzyl)(methyl)amino)piperidin-1-yl)(3,3,5-trimethyl-2,3-dihydro-1H-pyrrolo[3,2-b]pyridin-1-yl)methanone] | 
< 6.00 | < 6.00 | Cc1ccc2c(n1)C(C)(C)CN2C(=O)N1CCC(N(C)Cc2cccc(C(=O)N(C)C)c2)CC1 [Example 63, N, N-dimethyl-3-((methyl(1-(3,3,5-trimethyl-2,3-dihydro-1H-pyrrolo[3,2-b]pyridine-1-carbonyl)piperidin-4-yl)amino)methyl)benzamide] | 
6.30 to 7.00 | 6.30 to 7.00 | Cc1ccc2c(n1)C(C)(C)CN2C(=O)N1CCC(CN(C)Cc2ccccc2)CC1 [Example 66, (4-((benzyl(methyl)amino)methyl)piperidin-1-yl)(3,3,5-trimethyl-2,3-dihydro-1H-pyrrolo[3,2-b]pyridin-1-yl)methanone] | 
